Laboratory results from patent publication US20230212129A1, “QUINAZOLINE DERIVATIVES USEFUL AS SELECTIVE HDAC6 INHIBITORS” (AnnJi Pharmaceutical Co., Ltd., priority 2020, published 2023).

Key:
HDAC1 = molecular target: T1, HDAC1 (Homo sapiens, UniProt Q13547); assay: HDAC1 activity, acetylated-AMC-labeled peptide substrate; format: biochemical
T1 construct: GST (C); host or cells: baculovirus expression system, Sf9 insect cells (SP9 [sic])
Method: (§1) The activities of HDAC 1 and 6 were measured by using an acetylated-AMC-labeled peptide substrate, a fluorogenic peptide from p53 residues 379-382 (RHIKKAc). The proteins involved in the assay are as the followings (1) Human HIDAC1 (Genflank Accession No. NM_004964): Full length with C-terminal GST tag, MW=79.9 kDa, expressed by baculovirus expression system in SP9 cells; and (2) Human HIDAC6 (Genflank Accession No. BC069243): Full length with N-terminal GST tag, MW=159 kDa, expressed by baculovirus expression system in Sf9 cells.

HDAC6 = molecular target: T2, HDAC6 (Homo sapiens, UniProt Q9UBN7); assay: HDAC6 activity, acetylated-AMC-labeled peptide substrate; format: biochemical
T2 construct: GST (N); host or cells: baculovirus expression system, Sf9 insect cells
T2 sequence (Q9UBN7 1-1215): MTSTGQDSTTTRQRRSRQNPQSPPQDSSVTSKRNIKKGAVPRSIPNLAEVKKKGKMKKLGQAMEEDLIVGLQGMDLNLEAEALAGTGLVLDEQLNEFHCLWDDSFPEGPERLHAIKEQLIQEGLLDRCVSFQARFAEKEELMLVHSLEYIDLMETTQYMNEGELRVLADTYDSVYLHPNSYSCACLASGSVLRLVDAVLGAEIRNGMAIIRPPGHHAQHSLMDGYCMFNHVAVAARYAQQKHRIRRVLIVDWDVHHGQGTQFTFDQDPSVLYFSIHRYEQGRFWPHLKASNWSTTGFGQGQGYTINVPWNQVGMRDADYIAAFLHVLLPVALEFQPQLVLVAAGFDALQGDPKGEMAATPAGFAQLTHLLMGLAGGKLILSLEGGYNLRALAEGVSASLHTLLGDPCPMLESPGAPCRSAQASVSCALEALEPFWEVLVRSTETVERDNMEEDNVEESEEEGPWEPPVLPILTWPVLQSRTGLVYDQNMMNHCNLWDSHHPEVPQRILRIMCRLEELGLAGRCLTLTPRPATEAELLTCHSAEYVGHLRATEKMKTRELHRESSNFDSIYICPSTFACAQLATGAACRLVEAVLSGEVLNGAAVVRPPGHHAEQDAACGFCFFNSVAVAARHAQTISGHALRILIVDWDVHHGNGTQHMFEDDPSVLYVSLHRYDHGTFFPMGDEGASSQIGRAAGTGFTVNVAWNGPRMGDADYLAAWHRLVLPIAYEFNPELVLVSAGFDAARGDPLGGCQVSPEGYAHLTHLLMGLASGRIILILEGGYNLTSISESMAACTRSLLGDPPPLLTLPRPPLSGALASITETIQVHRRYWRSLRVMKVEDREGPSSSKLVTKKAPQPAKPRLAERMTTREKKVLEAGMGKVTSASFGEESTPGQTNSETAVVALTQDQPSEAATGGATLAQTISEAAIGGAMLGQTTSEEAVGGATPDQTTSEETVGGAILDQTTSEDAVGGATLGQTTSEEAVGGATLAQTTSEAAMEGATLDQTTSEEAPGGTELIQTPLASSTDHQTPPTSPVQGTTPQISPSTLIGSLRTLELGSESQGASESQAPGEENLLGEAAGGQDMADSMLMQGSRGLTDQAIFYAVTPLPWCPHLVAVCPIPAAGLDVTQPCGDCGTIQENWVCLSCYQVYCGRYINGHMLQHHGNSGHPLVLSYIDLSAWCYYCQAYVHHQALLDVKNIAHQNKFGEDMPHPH
Method: as §1

[1] = Oral pharmacokinetics (Table II); parameters: AUC: concentration or dose not given beside the values; settings: in vivo
[2] = tested on: dorsal root ganglion (DRG) cells; assay: DRG neurite outgrowth after paclitaxel-induced damage; format: cell-based, C57BL/6J mice; settings: 0.1 μM and 1 μM, 24 hours prior to 24-hour 0.1 μM paclitaxel; FIG. 1
Method: (§2) To investigate the effect of HDAC6 inhibitors in neuron protection and neuron regeneration, the recovery of dorsal root ganglion (DRG) cells post-paclitaxel injury was tested. Dorsal root ganglion was extracted from 7 week-old female C57BL/6J mice and incubated with HDAC6 inhibitors (compounds COMPOUND 33, COMPOUND 34, or COMPOUND 2) at the concentrations of 0.1 μM and 1 μM, or 100 ng/ml of BDNF, a neuronal growth factor (positive control), for 24 hours prior to a 24-hour incubation of 0.1 μM paclitaxel.
The neurite was stained by pIII-tubulin.

[3] = tested on: acetylated α-tubulin (Ac-α-tub); assay: Western blot of acetylated α-tubulin in primary DRG cells; format: cell-based, C57BL/6J mice; settings: 48 hours of treatment, FIG. 2
Method: as §2

[4] = tested on: bleomycin-induced pulmonary fibrosis; assay: Bleomycin-induced pulmonary fibrosis model, lung histology (H&E); format: in vivo, mice
Method: (§3) The activities of compounds COMPOUND 2 and COMPOUND 33 in preventing and/or treating pulmonary fibrosis were examined using a bleomycin-induced pulmonary fibrosis model, a model that involves deactivated bleomycin hydrolase, elevated oxidative stress, and increased inflammatory cytokines. In the prevention model, mice were administered bleomycin intratracheally an hour in prior to the first oral administration of 30 mg/kg testing compounds. The treatment continued for 21 consecutive days, and mice were sacrificed to examine histological changes of lung tissues were analyzed by H&E staining to evaluate the degree of lung fibrosis. Additionally, the HDAC6 inhibitors, COMPOUND 2 and COMPOUND 33, were tested for their effect in aiding animal recovery from lung injury and pulmonary fibrosis post injury.

IL-6 = IL-6 in bronchoalveolar lavage fluid, bleomycin model; format: in vivo, mice; settings: prevention model, 30 mg/kg oral, 21 days; FIG. 6
Method: as §3, with “fibrosis.” for “fibrosis. Additionally, the HDAC6 inhibitors, COMPOUND 2 and COMPOUND 33, were tested for their effect in aiding animal recovery from lung injury and pulmonary fibrosis post injury.”

[5] = tested on: BioMAP Fibrosis panel (REMyoF, SAEMyoF, MyoF systems); assay: BioMAP Fibrosis panel cytokine/biomarker profiles; format: cell-based
Method: The HDAC6 inhibitor compounds were tested in a commercially available platform, BioMAP, for the cytokine profiles in related to tissue injuries. The BioMAP Fibrosis panel included 3 systems stimulated to model TGFβ and TNFα driven myofibroblast differentiation during chronic inflammation and wound healing in different tissue settings. Fibrotic disease of the kidney associated with end-stage renal failure was captured in the REMyoF system consisting of a co-culture of renal proximal tubule epithelial cells and adult fibroblasts. Interstitial lung diseases, including pulmonary fibrotic diseases such as idiopathic pulmonary fibrosis (IPF), was modeled by co-culturing small airway epithelial cells and adult fibroblasts in the SAEMyoF system. Both co-culture systems modeled the paracrine interaction between myofibroblasts and the proximally located epithelial cells, while the impact on fibroblasts alone was interrogated using the monoculture MyoF system. A signature BioMAP profile that is reflective of the changes in protein biomarker readouts within an individual system was generated for each testing compounds. Biomarker readouts selected for therapeutic and biological relevance were predictive for disease outcomes or specific drug effects, and was validated using agents with known clinical efficacy. Each readout was measured quantitatively by immune-based methods that detect protein (e.g., ELISA).

T1 sequence (Q13547 whole entry): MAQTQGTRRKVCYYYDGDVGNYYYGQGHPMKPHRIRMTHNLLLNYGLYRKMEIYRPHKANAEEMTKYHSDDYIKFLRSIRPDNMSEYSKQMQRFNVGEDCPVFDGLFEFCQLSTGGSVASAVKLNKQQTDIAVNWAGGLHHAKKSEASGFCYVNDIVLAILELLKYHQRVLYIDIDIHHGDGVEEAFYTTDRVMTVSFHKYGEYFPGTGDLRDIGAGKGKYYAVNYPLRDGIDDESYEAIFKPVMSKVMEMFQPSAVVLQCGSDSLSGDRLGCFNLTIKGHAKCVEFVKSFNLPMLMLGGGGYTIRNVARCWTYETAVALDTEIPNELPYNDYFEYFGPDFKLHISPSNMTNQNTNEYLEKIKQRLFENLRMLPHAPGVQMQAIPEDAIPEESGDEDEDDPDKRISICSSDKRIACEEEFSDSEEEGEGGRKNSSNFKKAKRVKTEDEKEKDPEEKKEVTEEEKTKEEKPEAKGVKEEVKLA

CCc1nc2cc(F)c(/C=C/C(=O)NO)cc2c(=O)n1-c1ccccc1 [Compound 33, (E)-3-(2-ethyl-7-fluoro-4-oxo-3-phenyl-3,4-dihydroquinazolin-6-yl)-N-hydroxyacrylamide]
IC50 (HDAC1): 4440 nM | HDAC6 selectivity (A)/(B) (HDAC6; HDAC1 IC50 / HDAC6 IC50): 134 | IC50 (HDAC6; read-out: HDAC6 IC50 (B)): 33 nM | Cmax [1]: 2720 ng/mL | AUC ([1]; unit inferred): 11000 ng·h/mL | neurite outgrowth [2]: significantly rescued the neurite outgrowth | tubulin hyperacetylation [3]: tubulin hyperacetylation | development of lung fibrosis ([4]; prevention model, 30 mg/kg oral, 21 consecutive days, FIG. 5): markedly decreased the development of lung fibrosis | recovery from lung injury and pulmonary fibrosis post injury ([4]; treatment post injury): protective effect in pulmonary inflammatory response and pulmonary fibrosis | IL-6 level in the BALF (IL-6): suppressed IL-6 level in the BALF | fibrosis-related matrix activities ([5]; BioMAP readouts): decreased Collagen III, MMP-9; increased Collagen IV; modulated MMP-1, Collagen I | inflammation-related activities ([5]; BioMAP readouts): decreased M-CSF, sIL-6, MCP-1; modulated IP-10, I-TAC | myofibroblast activation-related activities ([5]; BioMAP readouts): decreased αSMA, E-Cadherin, N-Cadherin | tissue remodeling/wound healing activities ([5]; BioMAP readouts): decreased EGFR, tPA, uPA; modulated sVEGF | activities on cytokines contributing to fibrosis ([5]; compared with nintedanib): marked activities in decreasing TNF-α, IL-1, IL-6, MMP-9, VEGF, and collagen I
